{"source": "paper PMC9333455", "about": "“Drug repurposing based on a quantum-inspired method versus classical fingerprinting uncovers potential antivirals against SARS-CoV-2” (PLoS Computational Biology, 2022)", "test_system": "SARS-CoV-2 variants Alpha (B.1.1.7), Beta (B.1.351), Delta (B.617.2)", "format": "cell-based", "details": "Vero E6 and Caco-2 cells, 48 h"}
{"compound": "COc1nc(N)nc2c1ncn2[C@@H]1O[C@H](COP(=O)(N[C@@H](C)C(=O)OCC(C)(C)C)Oc2cccc3ccccc23)[C@@H](O)[C@@]1(C)O", "note": "(stereo partly shown) [BMS-986094]", "values": [{"measurement": "replication of panel of SARS-CoV-2 variant isolates (in words)", "result": "suppressed the replication"}]}
